Entries after “also recorded” stand apart in the source; their conditions may differ. Read-outs that look alike come from different tables or passages of the source.
Experiments:
porcine esterase = assay: Hydrolysis conversion rate of compounds into TRE mediated by porcine esterase; details: experiment (c); 0.2 mg/mL, 20 U porcine esterase, 38°C; 5 minutes to 2 hours
Experimental: This experiment was designed to evaluate the conversion rates of various compounds with different ester side chain structures into the TRE under the action of esterase.
The carbon number of the ester side chain of each compound was 10, wherein the alkyl side chains of R-05, R-06 and R-08 contained 1~3 oxygen atoms respectively. Each compound was dissolved in 20 mL of ethanol to prepare a 1 mg/ml test compound solution for later use. Then, 1 mL of the test compound solution was transferred into 4 mL of PBS aqueous solution to obtain 0.2 mg/mL test compound reaction solution. The reaction solution was added with 20 U (80 µL) of porcine esterase, shaken evenly and then incubated at 38°C. After a period of reaction, samples were taken according to the following time points: 10 minutes, 30 minutes, 1 hour and 2 hours. The conversion of the test compound into TRE was detected. The hydrolysis of each sample was calculated according to measured peak areas of the reactant and the product: [formula]
Sampling time points were: 20 minutes, 40 minutes, 1 hour and 2 hours.
Sampling time points were: 5 minutes, 15 minutes, 30 minutes, 1 hour and 2 hours.

[1] = cited from earlier work
subjects = details: cited from earlier work
SD rats [2] = assay: U46619-induced rat acute pulmonary arterial pressure rise model, low-dose airway nebulized administration (RVSP); format: in vivo; details: for Inhibition percentage on RVSP rise (%) (mean): 1 hour after low-dose airway nebulized administration (about 3 µg/kg, equimolar)
Description: In this experiment, airway nebulized administration dosages of the compounds were about 1/7 of airway nebulized administration dosages in Experimental Example 5. By using a U46619-induced rat acute pulmonary arterial pressure rise model, antihypertensive effects of the compounds of the present invention after airway nebulized administration were further verified by reducing the administration dosages.
A model construction method was the same as that described in Experimental Example 5. In this experiment, dosages of groups were as follows: the dosage of compound C16-TR group was 3 µg/kg, and the dosages of equimolar compounds Ia-1, Ia-2 and Ia-3 were 3.0 µg/kg, 3.2 µg/kg and 3.3 µg/kg respectively.
The SD rats were anesthetized and then administered by airway nebulization, and then the basic right ventricular systolic pressure (RVSP) was measured by right cardiac catheterization. The SD rats were intravenously injected with U46619 (25 µg /kg) at 1 hour after airway nebulized administration of each compound, a peak value of RVSP rise after injection with U46619 was observed and recorded, and the inhibition percentage on the RVSP rise was calculated by comparing with the basic RVSP value. The number of experimental animals in each group was 1~2.

SD rats [3] = assay: U46619-induced rat acute pulmonary arterial pressure rise model, airway nebulized administration (RVSP); format: in vivo; details: for antihypertensive effect and duration, overall: 1 to 48 hours after airway nebulized administration; for antihypertensive effect: equimolar to 13.3 µg/kg TRE
Description: U46619 was a stable analogue of thromboxane A2 (TXA2), which activated the downstream IP3 signal by binding to the thromboxane A2 receptor to promote vasoconstriction, platelet aggregation and the like. Influences of compound C16-TR and equimolar compounds Ia-1, Ia-2, Ia-3, R-11 and R-12 at different time points after airway nebulized administration on pulmonary hypertension of rats were studied by using the U46619-induced rat pulmonary arterial pressure rise mode, which were compared with that of equimolar TRE after airway nebulized administration.
Preparation of test sample: a required amount of compound TRE was taken and added into a sterile EP tube, and each tube was added with an appropriate amount of DMSO for dissolution to prepare a stock solution (100 mg/mL). Compounds C16-TR, la-1, la-2, Ia-3, R-11 and R-12 were added with appropriate amounts of DMSO and dissolved in the original bottles to prepare stock solutions (100 mg/mL), and then the stock solutions were transferred to sterile EP tubes. Each above stock solution was hermetically stored in the dark in a refrigerator at 4°C. When the stock solution was tested, an appropriate amount of stock solution was taken and added into a new sterile EP tube, and diluted with DMSO and 1×PBS to a target concentration (working solution) wherein the solvent was 3% DMSO/1×PBS.
Preparation of modeling agent: 900 µL of methyl acetate was added into an original bottle of U46619 and mixed evenly to prepare 1 mg/mL(1 µg/µL) stock solution, which was divided into 10 µL (1 µg/µL) per sterile EP tube and stored in a refrigerator at -20°C. On the day of modeling, the stock solution was taken out and balanced at room temperature and constant temperature, and each tube was added with an appropriate amount of 0.9% sodium chloride solution (sterile) to be diluted 20-fold, so as to prepare a working solution with a concentration of 50 ng/µL.
Airway nebulized administration dosages of compound TRE and the test compounds were equimolar quantities calculated based on TRE. The dosage of compound TRE group (n=3) was 13.3 µg/kg, the dosage of compound C16-TR group (n=5) was 20.9 µg/kg, the dosage of compound Ia-1 group (n=3) was 21.2 µg/kg, the dosage of compound Ia-2 group (n=6) was 22.1 µg/kg, the dosage of compound Ia-3 group (n=6) was 23.1 µg/kg, the dosage of compound R-11 group (n=3) was 21.9 µg/kg, and the dosage of compound R-12 group (n=3) was 21.7 µg/kg. There were also a model control group (n=1) and a solvent control group (n=3).
The SD rats were injected with U46619 (25 µg /kg) through the left jugular vein at different time points after airway nebulized administration, the peak value of RVSP rise after injection with U46619 was observed and recorded, and the inhibition percentage on the RVSP rise was calculated by comparing with the basic RVSP value. The rats in the model control group were administered with U46619 by intravenous injection immediately after successful catheterization and measurement of the basic RVSP. RVSP of all animals were detected by right cardiac catheterization, and respiratory conditions of the animals were observed generally. Table-2 Time points of administrating U46619 in various groups

IP receptor = molecular target: T1, IP receptor (Homo sapiens, UniProt P43119); assay: In-vitro agonist activity on IP receptor, FLIPR calcium test in IP/HEK293 cells; format: cell-based; details: 10 concentrations, 10-fold dilutions
T1 construct: host or cells: HEK293 (IP/HEK293 cell line)
Experimental: The specific method is as follows: The IP/HEK293 cell line was provided by WuXi AppTec (Shanghai) Co., Ltd. Well-grown IP/HEK293 cells were taken out from the incubator, the culture solution was aspirated, the cells were washed with D-PBS and digested with trypsin EDTA, and then added with a cell culture solution, and the cells were fully suspended by repeated pipetting. The cells were centrifuged at room temperature, the supernatant was aspirated, a culture medium was added, and the cells were resuspended by repeated pipetting with a sterile pipette. After counting living cells with Vi-CELL™, 20 µL (20,000 cells/well) of cell suspension was added to a 384-well cell culture plate and incubated in a 5% CO2 incubator at 37°C overnight. 1 mL of FLIPR test buffer was added with 77 mg of probenecid to prepare 250 mM probenecid solution. After thawing a bottle of 2XFluo-4 DirectTM (F10471), the bottle was added with 10 mL of FLIPR test buffer containing 500 uM AEBSF, and each 10 mL of Fluo-Direct was added with 0.2 mL of probenecid, with a final concentration of 2.5 mM. The mixture was vortexed and then allowed to stand in the dark for more than 5 minutes. Each compound was placed in a water bath at 25°C for 30 minutes. Then, these compounds were sequentially diluted 10-fold with Bravo, with a total of 10 concentrations, for testing. 750 nL of each compound was transferred to a 384-well compound plate with ECHO. Then, the compound plate was added with 30 µL of detection buffer. The 384-well cell culture plate was taken out from the incubator, the culture medium was discarded, and 20 µL of test buffer and 20 µL of 2X Fluo-4 DirectTM No-Wash loading buffer were added with a pipette. The cell culture plate was incubated in a 5% CO2 incubator at 37°C for 50 minutes and incubated at room temperature for 10 minutes. The cell culture plate, the compound plate and a tip box were placed into FLIPR, FLIPRTETRA test program was operated, 10 µL of reference compound and 10 µL of test compound were aspirated from the compound plate to the cell culture plate, fluorescence signals were read, and then data were processed. The data were analyzed by using Prism.

EP2 receptor = molecular target: T2, EP2 receptor (Homo sapiens, UniProt P43116); assay: Competitive binding to EP2 receptor against radiolabeled ligand 3H-PGE2; details: 8 concentrations from 10 µM, 10-fold dilutions
T2 construct: purchased Merck HTS185M
Experimental: This experiment was carried out in 96-well plates to evaluate the binding affinity of the compounds of the present invention (Ia-1, Ia-2 and Ia-3) to the prostaglandin EP2 receptor by testing their ability of competitive binding to the EP2 receptor with the radiolabeled ligand ^3H-PGE2. Treprostinil was used as control. MicroBeta2 was used to detect the number of ^3H captured, and Prism software was used to analyze data. The EP2 film (Merck, Cat# HT[…], batch number 2121326) was diluted with a buffer (50 mM Hepes, PH=7.4, 5 mM MgCl2, 1 mM CaCl2, 0.5% BSA) to a final concentration of 75 μg/mL. ^3H-PGE2 was diluted to 15 nM. Test compound and control compound solutions with an initial concentration of 10 μM were prepared, and subjected to 10-fold continuous gradient dilution, with a total of 8 concentrations for testing. 5%DMSO was used as a solvent control group. 1 μL of each compound solution was added into a corresponding position in the 96-well test plate, and each well was added with 50 μL of the EP2 film (about 3.75 μg/well), and added with 50 μ L of ^3H-PGE2. Then, the well plate was sealed, and incubated with shaking at 300 rpm at room temperature for 2 hours. After finishing the incubation, GF/C plates were filtered with Perkin Elmer Filtermate Harvester, and then each plate was washed with cold eluent for 4 times, and dried at 50°C for 1 hour. After drying, bottoms of wells of the filter plate were sealed with a PerkinElmer Unifilter-96 backing tape. 50 μL of Perkin Elmer Microscint O was added. The top of the filter plate was sealed with Perkin Elmer TopSeal-A sealing film. The number of ^3H captured was detected by MicroBeta2.

[4] = inhaled treprostinil; cited from earlier work
[5] = 16 hours after airway nebulized administration

T1 sequence (P43119 whole entry): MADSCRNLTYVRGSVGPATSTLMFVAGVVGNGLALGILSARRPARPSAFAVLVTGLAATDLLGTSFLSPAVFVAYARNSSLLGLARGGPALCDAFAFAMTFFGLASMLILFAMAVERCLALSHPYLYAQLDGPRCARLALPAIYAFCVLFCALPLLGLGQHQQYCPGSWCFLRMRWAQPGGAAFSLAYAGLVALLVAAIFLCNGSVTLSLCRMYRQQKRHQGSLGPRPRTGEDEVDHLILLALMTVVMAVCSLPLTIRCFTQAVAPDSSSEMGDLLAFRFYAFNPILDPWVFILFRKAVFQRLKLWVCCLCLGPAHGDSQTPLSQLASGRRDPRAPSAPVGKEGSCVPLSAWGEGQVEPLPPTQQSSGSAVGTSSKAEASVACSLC
T2 sequence (P43116 whole entry): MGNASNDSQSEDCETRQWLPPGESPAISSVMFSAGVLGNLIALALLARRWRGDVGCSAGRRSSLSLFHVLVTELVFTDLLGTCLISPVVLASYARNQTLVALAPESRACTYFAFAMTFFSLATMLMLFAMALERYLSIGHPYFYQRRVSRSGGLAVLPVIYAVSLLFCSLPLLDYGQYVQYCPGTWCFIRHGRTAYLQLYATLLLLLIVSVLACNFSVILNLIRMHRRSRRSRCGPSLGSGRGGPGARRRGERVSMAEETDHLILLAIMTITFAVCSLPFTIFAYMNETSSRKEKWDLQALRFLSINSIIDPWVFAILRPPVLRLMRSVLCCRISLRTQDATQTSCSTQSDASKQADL

Row | SMILES | hydrolysis conversion rates (release of TRE) (porcine esterase) | physical stability in solution on long-term storage ([1]; HFA propellant with ethanol and DSPE-PEG2000, storage >1 week) | solubility in HFA propellant ([1]; content of ethanol lower than 13%) | reaction of dissolved compound with the alcohol solvent ([1]; dissolved state, ethanol) | side effects (subjects; 170 µg/kg and 340 µg/kg) | side effects (subjects; low dose (54 µg/kg)) | antihypertensive effect (SD rats [2]; 1 hour after low-dose airway nebulized administration) | Inhibition percentage on RVSP rise (%) (mean) (SD rats [2]) | antihypertensive effect and duration, overall (SD rats [3]; equimolar doses) | antihypertensive effect (SD rats [3]; [5]) | agonist activity on IP receptor (IP receptor) | antihypertensive effects compared with C16-TR (SD rats [3]; 1 hour and 6 hours after airway nebulized administration, equimolar doses) | binding to the EP2 receptor (competition with 3H-PGE2) (EP2 receptor) | antihypertensive effect (SD rats [3]; 24 hours after airway nebulized administration) | inhibition percentage on the RVSP rise (SD rats [3]; 13.3 µg/kg, 16 minutes after airway nebulized administration) | half-life [4]
1 | CCCCCCCCCCCCCCCCOC(=O)COc1cccc2c1C[C@H]1C[C@@H](O)[C@H](CC[C@@H](O)CCCCC)[C@H]1C2 [Compound C16-TR, treprostinil palmitate] | significantly prolong the hydrolysis conversion rates and release TRE slowly and steadily | could not remain soluble | could not be dissolved | generates ester exchange impurities with the alcohol solvent; also recorded: can react with ethanol, leading to substitution of the C16 ester by an ethyl ester | developed cough and sore throat | no side effects such as cough or sore throat | no antihypertensive effect | 5.49 | long-term antihypertensive effects | no antihypertensive effect | – | – | – | – | – | –
2 | CCCCC[C@H](O)CC[C@@H]1[C@H]2Cc3cccc(OCC(=O)OCCCCCCOCCCCc4ccccc4)c3C[C@H]2C[C@H]1O [Compound Ia-1] | – | – | – | – | – | – | – | 67.67 | – | no antihypertensive effect | no agonist activity | better than those of C16-TR | no detectable binding | – | – | –
3 | CCCCC[C@H](O)CC[C@@H]1[C@H]2Cc3cccc(OCC(=O)OCCCCCCCCCCOCCCCc4ccccc4)c3C[C@H]2C[C@H]1O [Compound Ia-3] | – | – | – | – | – | – | – | 83.49 | stronger antihypertensive effects than C16-TR and longer durations | – | no agonist activity | – | no detectable binding | obvious antihypertensive effects | – | –
4 | CCCCC[C@H](O)CC[C@@H]1[C@H]2Cc3cccc(OCC(=O)O)c3C[C@H]2C[C@H]1O [TRE, treprostinil] | – | – | – | – | – | – | – | – | – | – | strong agonist activity | – | competitively inhibited the binding of the ligand ^3H-PGE2 to the EP2 receptor in a concentration-dependent manner | – | about 39% | about 30 minutes
